The record followed here is US9428753B2, “Use of LXR antagonists for treatment of side effects of elevated glucocorticoid levels” (The Governing Council of the University of Toronto, priority 2013, dated 2016).

Molecules are shown by their SMILES. Where two headings read alike, the source gives them in different places.

Assay type in all cases: cell-based
The test system of one test is Pepck. Briefly: Pepck gene expression in mouse primary hepatocytes.
In the next test the target is T1, LXRα (Homo sapiens, UniProt Q13133).
T1 sequence (Q13133 209-447 limits assumed): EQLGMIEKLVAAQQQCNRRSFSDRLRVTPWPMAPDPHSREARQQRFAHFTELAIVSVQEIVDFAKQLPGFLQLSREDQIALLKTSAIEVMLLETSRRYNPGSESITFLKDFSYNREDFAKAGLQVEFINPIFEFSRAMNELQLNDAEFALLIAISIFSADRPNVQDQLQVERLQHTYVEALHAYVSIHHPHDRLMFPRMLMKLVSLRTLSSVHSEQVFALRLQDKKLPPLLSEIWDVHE
Description: GAL4-LXRα / UAS-luc co-transfection reporter assay in HEK293 cells. Further details: co-transfecting UAS-reporter and GAL4-LBD of the nuclear receptors LXRα, LXRβ and GR; GAL4 (fusion partner); expressed in transfected cells; host or cells: HEK293 cells; mouse primary hepatocytes. The protocol:
(§1) RLU=relative luciferase units.
as §1
Further experiments were then carried out to determine the inhibitory potencies for the individual LXR isoforms in HEK 293 cells by co-transfecting UAS-reporter and GAL4-LBD of the nuclear receptors LXRα, LXRβ and GR and then treating with 8 different concentrations of GSK2033. To assess suppression of ligand activated receptors, the transfected cells were co-treated with increasing doses of GSK2033, in addition to T09091317 or Dex (dexamethasone) (at EC80 of LXR isoforms and GR, respectively).
A number of experiments were carried out to determine the relative inhibitory potencies of GSK2033, Amgen 54 and DMHCl for the individual LXR isoforms in HEK 293 cells by co-transfecting UAS-reporter and GAL4-LBD of the nuclear receptors LXRα, LXRβ and GR and then treating with 6 different concentrations of GSK2033, Amgen 54 and DMHCl. To assess suppression of ligand activated receptors, the transfected cells were co-treated with increasing doses of GSK2033, Amgen 54 and DMHCl, in addition to T09091317 or Dex (at EC80 of LXR isoforms and GR, respectively).

In test [1] the test system is mouse primary hepatocytes. Description: Glucose production (glucose output) in mouse primary hepatocytes. The procedure: T09 treatment was used as a positive control for LXR activity. (D) Glucose output over 24 hrs from LXRα−/− and LXRβ−/− mouse primary hepatocytes following Dex 100 nM±10 μM GSK2033 treatment. (E) Glucose output over 8 hrs from WT hepatocytes following Dex 500 nM±10 μM GSK2033 treatments. Data represent the Avg±SD, N=3. *P<0.05 by One way ANOVA, Student Newman Keuls. Legend: V=vehicle, G=GSK2033 (LXR antagonist); D=dexamethasone (GR agonist); and T09=T0901317 (LXR agonist).
While not wishing to be limited by theory, subsequent to conducting these initial studies it was realized that 24 hour incubation of hepatocytes in gluconeogenic media may be too long. In the literature, for this type of assay, primary heptocytes are usually incubated up to 12 hours. As such, for subsequent studies of the present application, WT cells were treated with 500 nM Dex for 8 hours to be able to measure detectable levels of glucose in the media.

A further test deals with GILZ. Briefly: GILZ gene expression in LPS activated mouse primary macrophages (RT-QPCR). As to conditions: 100 nM Dex + 10 μM GSK2033, 18 hrs. The protocol:
(§2) The expression of genes involved in immune response IL-1β, IL-6 and GILZ was measured following an overnight treatment with Dex 100 nM, 250 nM T0901317 (T09), and/or 10 μM GSK2033 in LPS activated WT, LXR α −/− and LXRβ −/− mouse primary macrophages, by RT-QPCR. Data represent the Avg±SD, N=3. *P<0.05 by One way ANOVA, Student Newman Keuls.
(§3) To assess the ability of GSK2033 to affect GR-mediated inflammatory suppression, a number of gene expression studies were conducted on primary macrophages isolated from WT, LXRα−/− and LXRβ−/− mice. Cells were pre-treated with 10 ng/ml lipopolysaccharide (LPS) for 6 hrs (to induce a potent inflammatory response) followed by treatment of 100 nM Dex, 10 μM GSK2033 and/or 250 nM T09 for 18 hrs.

The next test deals with IL-1β. Description: IL-1β gene expression in LPS activated mouse primary macrophages (RT-QPCR). The protocol:
as §2, §3

Test [2] relates to tyrosine aminotransferase (TAT). Briefly: TAT gene expression in mouse primary hepatocytes. As to conditions: WT, LXRα−/− and LXRβ−/− hepatocytes; 100 nM Dex + 10 μM GSK2033. The protocol:
T09 treatment was used as a positive control for LXR activity. (D) Glucose output over 24 hrs from LXRα−/− and LXRβ−/− mouse primary hepatocytes following Dex 100 nM±10 μM GSK2033 treatment. (E) Glucose output over 8 hrs from WT hepatocytes following Dex 500 nM±10 μM GSK2033 treatments. […] Legend: V=vehicle, G=GSK2033 (LXR antagonist); D=dexamethasone (GR agonist); and T09=T0901317 (LXR agonist).

For another test, the system named is IL-6. Description: IL-6 gene expression in LPS activated mouse primary macrophages (RT-QPCR). The protocol:
as §2, §3

The mark [3] stands for this setting: LPS activated macrophages, 250 nM T09 + 10 μM GSK2033.
The mark [4] stands for this setting: WT, LXRα−/− and LXRβ−/− macrophages, LPS 10 ng/ml 6 hrs, 100 nM Dex + 10 μM GSK2033, 18 hrs.

For `Cc1cc(C)c(S(=O)(=O)N(Cc2ccc(-c3cccc(S(C)(=O)=O)c3)cc2)Cc2ccc(C(F)(F)F)o2)c(C)c1` [GSK2033, 2,4,6-trimethyl-N-((3′-(methylsulfonyl)-[1,1′-biphenyl]-4-yl)methyl)-N-((5-(trifluoromethyl)furan-2-yl)methyl)benzenesulfonamide], the Pepck expression is given as 3.2 fold in the test with Pepck (Example 3, LXRα−/− hepatocytes, 100 nM Dex + 10 μM GSK2033); “remained unchanged” in the test on Pepck (Example 3, LXRβ−/− hepatocytes, 100 nM Dex + 10 μM GSK2033); 1.9 fold in the test with Pepck (Example 3, WT hepatocytes, 100 nM Dex + 10 μM GSK2033); 0.8 fold in the test with Pepck (Example 6, LXRα−/− hepatocytes, 100 nM Dex + 10 μM GSK2033); 1.7 fold in the test on Pepck (Example 6, LXRα−/− hepatocytes, 10 μM Cortisol + 10 μM GSK2033); 1.24 fold in the test on Pepck (Example 6, LXRα−/− hepatocytes, 10 μM Prednisone + 10 μM GSK2033). For the same compound, the Pepck expression amounted to 0.6 fold with Pepck (Example 6, LXRα−/− hepatocytes, 10 μM Triamcinolone acetonide + 10 μM GSK2033) and 2.7 fold with Pepck (Example 8, LXRα−/− hepatocytes, 100 nM Dex + 10 μM LXR antagonist). For the same compound, the IC50 at LXRα (Example 1, T0901317 at EC80 (250 nM), 8 concentrations, read-out: IC50 against LXRα) turned out to be 79 nM; on LXRα (Example 7, T0901317 250 nM, 6 concentrations, read-out: IC50 to inhibit LXRα) it was 22 nM. The “basal repression of LXRα” value at LXRα (preliminary experiment, 3 doses) is recorded as “basal repression”. The “glucose secretion (glucose output)” value in test [1] (LXRα−/− hepatocytes, 100 nM Dex + 10 μM GSK2033, 24 hours) was 1.2 fold; in test [1] (WT hepatocytes, 500 nM Dex + 10 μM GSK2033, 8 hours) it was 1.25 fold. For the same compound, in the test on GILZ, the “GR-mediated induction of GILZ under GSK2033 co-treatment” value is “unaffected”. The “T09 mediated suppression of IL-1β under GSK2033 co-treatment” value with IL-1β (setting [3]) is “antagonized”. Further, the “Dex-mediated IL-1β repression under GSK2033 co-treatment” value with IL-1β (setting [4]) was “unaffected”. Further, the “Dex induction of TAT under GSK2033 co-treatment” value in test [2] is recorded as “not altered”. For the same compound, the “T09 mediated suppression of IL-6 under GSK2033 co-treatment” value with IL-6 (setting [3]) was “antagonized”. Also, the “Dex-mediated IL-6 repression under GSK2033 co-treatment” value in the test on IL-6 (setting [4]) was “unaffected”.
